Tests used:
[1] = test system: isolated perfused rat heart; test: Isolated perfused rat heart, low flow ischemia/reperfusion: heart mechanics (LVEDP, LVDevP, CPP); conditions: antagonist alone 1 μM, pre-ischemic period, mean ± S.E.M.
Description: (§1) In brief, the rats were anaesthetized with sodium pentobarbital (60 mg/kg) given by intraperitoneal injection. The chest were opened, and the heart was rapidly excised, and placed in cold (4° C.) heparinized (20 units/ml) Krebs Henseleit solution. […] Coronary perfusion pressure (CPP), left ventricular pressure (LVP) and left ventricular developed pressure (LVDevP; peak left ventricular systolic pressure minus LVEDP) were measured.
(§2) After equilibration of 15 min, hearts were paced at 300 beats/min with an electrical stimulator via two silver electrodes attached to the right atrium and an additional 30 min of perfusion was carried out (pre-ischemic period). Ischemia was induced by reducing the flow rate from 15 ml/min to 1 ml/min for 20 min (ischemic period). A normal flow rate (15 ml/min) was then restored and the perfusion was continued for another 30 min (reperfusion period).

[2] = test system: isolated perfused rat heart; test: Creatine kinase (CK) and lactate dehydrogenase (LDH) activities in heart perfusates; conditions: antagonist alone 1 μM; mU/min/g w.w. vs time 20 to 50 min; mean ± S.E.M.
Description: as §1, §2
The perfusate, eluted from the heart during pre-ischemic and reperfusion periods, was collected in an ice-cooled beaker as 2.5-min samples collection. Each sample was used for the determination of CK and LDH activities by means of a spectrophotometrical method.

## COC(=O)[C@H]1[C@H]2C[C@H]3c4[nH]c5ccccc5c4CCN3C[C@H]2CC[C@@H]1O [Rauwolscine, rauwolscine]
[1]; mm Hg vs time 0 to 50 min
  AUC related to LVEDP: 505 ± 64
[1]; mm Hg vs time 20 to 50 min
  AUC related to CPP: 1680 ± 98
  AUC related to LVDevP: 912 ± 64
[2]
  AUC related to CK: 5584 ± 297
  AUC related to LDH: 12988 ± 522
